Test results as given in paper PMC11943723, “Synthesis and Biological Activity of Glycosyl Thiazolyl Disulfides Based on Thiacarpine, an Analogue of the Cytotoxic Alkaloid Polycarpine from the Ascidian Polycarpa aurata” (Marine Drugs, 2025).
In brackets after ≈: the same amount, converted by molar mass. Counter-ions that a name gives are not always drawn. Like-named read-outs stand apart in the source and are kept apart here.

How the values were obtained:
[1] = tested on: HeLa (cervical cancer); assay: MTT cell viability assay, HeLa; format: cell-based, human; details: Homo sapiens, HeLa, 24 h, 24 h incubation, read-out: Cytotoxicity EC50, HeLa
From the text: (§1) Human erythrocytes were purchased from the blood transfusion station Vladivostok. Human breast cancer cell lines MCF-7^HTB−22, and MDA-MB-231^CRM-HTB−26, liver hepatocellular carcinoma Hep G2^HB−8065, prostate adenocarcinoma PC-3^CRL−1435, cervical adenocarcinoma HeLa^CRM-CCL−2, and normal bronchial epithelial cells BEAS-2B ^CRL−3588 were received from ATCC (Manassas, VA, USA).
(§2) DMEM medium (Biolot, Russia) with 1% penicillin/streptomycin and 10% fetal bovine serum (FBS) (Biolot, Russia) was used for cultivation of Hep G2, PC-3, HeLa, and Beas-2b. MEM medium (Biolot, Russia) with 1% penicillin/streptomycin sulfate (Biolot, Russia) and FBS (Biolot, Russia) to a final concentration of 10% for MCF-7 and MDA-MB-231 cells.
(§3) The effect of the studied compounds on the viability of human cancer and normal cells was determined using the MTT (3-[4,5-dimethylthiazol-2-yl]-2,5 diphenyl tetrazolium bromide) assay. Briefly, 6 × 10^3 cells per well were seeded into 96-well plates and incubated for 24 h for adhesion, followed by incubation for 24 h with different concentrations of the substances. After incubation, the medium containing the test substances was replaced with 100 µL of fresh medium. Then, 10 μL of MTT (Sigma-Aldrich, Madison, WI, USA) reagent (5 mg/mL MTT in PBS) was added into the cells and the plates for additional 4 h. Thereafter, 100 µL of SDS-HCl solution (1 g SDS/10 mL dH2O/17 µL 6N HCl) was added to each well and incubated for 18 h. The absorbance of the converted formazan dye was measured using a Multiskan FC microplate photometer (Thermo Scientific, Waltham, MA, USA) at a wavelength of 570 nm. All experiments were performed in triplicate. Cytotoxic activity was expressed as a percentage of the cell viability.

[2] = tested on: Hep G2 (hepatocellular carcinoma); assay: MTT cell viability assay, Hep G2; format: cell-based; details: Homo sapiens, HepG2, 24 h incubation, read-out: Cytotoxicity EC50, Hep G2
From the text: as §1, §2, §3

[3] = tested on: MDA-MB-231 (triple-negative breast cancer); assay: MTT cell viability assay, MDA-MB-231; format: cell-based, human; details: Homo sapiens, MDA-MB-231, 24 h, 24 h incubation, read-out: Cytotoxicity EC50, MDA-MB-231 (TNBC)
From the text: as §1, §2, §3

[4] = MTT cell viability assay, BEAS-2B normal cells; format: cell-based; details: human, BEAS-2B normal bronchial epithelial cells, 24 h incubation, read-out: Cytotoxicity EC50, BEAS 2B
From the text: as §1, §2, §3

[5] = tested on: HeLa cells; assay: Colony formation (clonogenic) assay; format: cell-based; details: Homo sapiens, 336 h, 14 days
Procedure: The effect of the test compounds on HeLa cell proliferation was analyzed using a clonogenic assay. Briefly, HeLa cells were cultured in 6-well plates at a density of 1 × 10^2 cells per well, and compounds were added at concentrations of 5 or 10 μM. Untreated culture medium was used as a control. […] Before fixation and staining, the medium was removed and the cells were washed twice with PBS. The colonies were then fixed with methanol for 25 min and stained with 0.5% crystal violet for 25 min at room temperature. The plates were then washed with water and air-dried.

[6] = tested on: Candida albicans (KMM 455); assay: Antimicrobial activity, inhibition of microbial growth (optical density); format: cell-based; details: 18 h, OD 620 nm, read-out: Inhibition of Microbial Growth MIC50, C. albicans
Procedure: (§4) The antimicrobial activity of the compounds was determined against Gram-positive bacteria Staphylococcus aureus (ATCC 21027), Gram-negative bacteria Escherichia coli (VKPM B-7935), and yeast-like fungi Candida albicans (KMM 455) (all test strains were obtained from the Collection of Marine Microorganisms KMM PIBOC FEB RAS) in liquid nutrient media. Test cultures of S. aureus, E. coli, and C. albicans were grown in Petri dishes on a solid nutrient medium (Mueller–Hinton broth with the addition of agar—16.0 g/L) at 37 °C for 24 h. The antimicrobial activity of the compounds was determined by the change in optical density and expressed as the percentage of bacterial inhibition at different concentrations of substances added to the well of the microorganism suspension, compared to the control. The compounds were dissolved in dimethyl sulfoxide (DMSO) at a concentration of 10 mM and stored at −20 °C. Before the experiment, the solution of substances in DMSO was diluted with PBS at a concentration of 0.5–100.0 µM and added to the wells so that the concentration of DMSO in the culture medium was less than 1%. Antimicrobial activity was determined in 96-well microplates in a liquid Mueller–Hinton nutrient medium. For S. aureus, E. coli, and C. albicans, a bacterial suspension of 10^6 CFU in 1 mL of the media was used, 90 μL was added to each well of the microplates and then incubated in a thermostatted shaker at 37 °C for 18 h. Inhibition of microorganism growth was assessed by measuring the optical density at 620 nm using a microplate reader (Thermo Fisher Scientific, Waltham, MA, USA) after preliminary shaking of the plates for 10 min. All experiments were performed in triplicate. Gentamicin (S. aureus and E. coli) and nitrofungin (C. albicans) were used as positive controls, and 1% DMSO in PBS was used as a negative control.

[7] = tested on: Escherichia coli (VKPM B-7935); assay: as above; format: cell-based; details: 18 h, OD 620 nm, read-out: Inhibition of Microbial Growth MIC50, E. coli
Procedure: as §4

[8] = tested on: Staphylococcus aureus (ATCC 21027); assay: as above; format: cell-based; details: 18 h, OD 620 nm, read-out: Inhibition of Microbial Growth MIC50, S. aureus
Procedure: as §4

[9] = tested on: Human erythrocytes; assay: Hemolytic activity (destruction of erythrocyte membranes); format: cell-based
From the text: as §1

[10] = tested on: Candida albicans (KMM 455); assay: Inhibition of biofilm formation (MTT); format: cell-based; details: 24 h
Procedure: (§5) Biofilm formation was performed according to the method described by Walencka et al., with minor modifications. The compounds were dissolved in dimethyl sulfoxide (DMSO) at a concentration of 10 mM and stored at −20 °C. Before the experiment, the solution of substances in DMSO was diluted with PBS at a concentration of 0.5–100.0 µM and added to the wells so that the concentration of DMSO in the culture medium was less than 1%. Biofilm formation was assessed in 96-well microplates in a liquid Mueller–Hinton nutrient medium. For S. aureus, E. coli, and C. albicans, a bacterial suspension of 10^6 CFU in 1 mL of medium was used, 90 μL was added to each well of the microplates and then incubated in a thermostatted shaker at 37 °C for 24 h. After incubation, the suspension of planktonic microorganisms was removed from the plate and washed with PBS. Next, 100 μL of PBS and 10 μL of MTT (3-(4,5-dimethylthiazol-2-yl)-2,5-diphenyltetrazolium bromide, MTT reagent, Sigma) stock solution (5 mg/mL) were added to the wells and incubated for 3 h at 37 °C. After incubation, all the solution was removed from the wells, 100 μL of DMSO was added, and the plate was shaken for 10 min until all formazan crystals had dissolved. The absorption was measured using a plate reader (Thermo Fisher Scientific, Waltham, MA, USA) at a wavelength of 570 nm. The activity of the substances was assessed by the change in optical density compared with that of the control. All experiments were performed in triplicate. Gentamicin (S. aureus and E. coli) and nitrofungin (C. albicans) were used as positive controls, and 1% DMSO in PBS was used as a negative control.

[11] = tested on: Escherichia coli (VKPM B-7935); assay: Inhibition of biofilm formation (MTT); format: cell-based; details: 24 h
Procedure: as §5

[12] = tested on: Staphylococcus aureus (ATCC 21027); assay: Inhibition of biofilm formation (MTT); format: cell-based; details: 24 h
Procedure: as §5

[13] = Staphylococcus aureus, ATCC21027

| SMILES | MIC50 ([6]; Candida albicans, KMM455) | MIC50 ([7]; Escherichia coli) | MIC50 [8, 13] | Inhibition of Biofilm Formation MIC50, C. albicans [10] | Inhibition of Biofilm Formation MIC50, E. coli [11] | Inhibition of Biofilm Formation MIC50, S. aureus [12] | MIC50 [6] | MIC50 [7] | MIC50 [8] | EC50 [1] | EC50 [2] | EC50 [3] | EC50 at 24 h [4] | inhibition at 5 µM ([5]; 5 µM, read-out: Colony growth inhibition) | inhibition at 10 µM [5] | Hemolytic activity, erythrocytes [9] |
| --- | --- | --- | --- | --- | --- | --- | --- | --- | --- | --- | --- | --- | --- | --- | --- | --- |
| COc1ccc(-c2nc(N)sc2SS[C@@H]2OC[C@@H](OC(C)=O)[C@H](OC(C)=O)[C@H]2OC(C)=O)cc1 [Compound 4f, 5-[(2,3,4-Tri-O-acetyl-β-D-xylopyranosyl)disulfanyl]-2-amino-4-(4-methoxyphenyl)thiazole] | 34.1 ± 2.1 µM (≈ 18 µg/mL) | 39.5 ± 4 µM (≈ 20.9 µg/mL) | 32.1 ± 3.7 µM (≈ 17 µg/mL) |  |  |  |  |  |  | 20.4 µM | 22.6 µM | 22.9 µM | 23.5 µM | ~16% | 78% |  |
| CC(=O)O[C@@H]1[C@@H](OC(C)=O)[C@H](SSc2sc(N)nc2-c2ccc(Cl)cc2)OC[C@H]1OC(C)=O [Compound 4i, 5-[(2,3,4-Tri-O-acetyl-β-D-xylopyranosyl)disulfanyl]-2-amino-4-(4-chlorophenyl)thiazole] | 2.8 ± 0.3 µM (≈ 1.49 µg/mL) | 8.7 ± 0.9 µM (≈ 4.64 µg/mL) | 3.1 ± 0.3 µM (≈ 1.65 µg/mL) | 4.08 µM |  | 6.25 µM |  |  |  | > 25 µM | > 25 µM | > 25 µM | > 25 µM |  |  | > 25 µM |
| CC(=O)OC[C@H]1O[C@@H](SSc2sc(N)nc2-c2ccc(Cl)cc2)[C@H](OC(C)=O)[C@@H](OC(C)=O)[C@@H]1OC(C)=O [Compound 4d, 5-[(2,3,4,6-Tetra-O-acetyl-β-D-glucopyranosyl)disulfanyl]-2-amino-4-(4-chlorophenyl)thiazole] | 6.9 ± 0.9 µM (≈ 4.18 µg/mL) | 16.1 ± 1.7 µM (≈ 9.74 µg/mL) | 19.2 ± 2 µM (≈ 11.6 µg/mL) | 7.03 µM |  |  |  |  |  | > 25 µM | > 25 µM | 22.9 µM | 14.1 µM |  |  |  |
| CC(=O)OC[C@H]1O[C@@H](SSc2sc(N)nc2-c2ccc(Br)cc2)[C@H](OC(C)=O)[C@@H](OC(C)=O)[C@@H]1OC(C)=O [Compound 4c, 5-[(2,3,4,6-Tetra-O-acetyl-β-D-glucopyranosyl)disulfanyl]-2-amino-4-(4-bromophenyl)thiazole] | 7.1 ± 0.7 µM (≈ 4.61 µg/mL) | 6.9 ± 0.5 µM (≈ 4.48 µg/mL) | 2.3 ± 0.3 µM (≈ 1.49 µg/mL) |  | 8.04 µM | 7.94 µM |  |  |  | 19.4 µM | 24.3 µM | 21.7 µM | 15.5 µM |  | 76% | > 25 µM |

Now from value to molecule, other results behind:

| MIC50 ([6]; Candida albicans, KMM455) | MIC50 ([7]; Escherichia coli) | MIC50 [8, 13] | Inhibition of Biofilm Formation MIC50, C. albicans [10] | Inhibition of Biofilm Formation MIC50, E. coli [11] | Inhibition of Biofilm Formation MIC50, S. aureus [12] | MIC50 [6] | MIC50 [7] | MIC50 [8] | SMILES | EC50 [1] | EC50 [2] | EC50 [3] | EC50 at 24 h [4] | inhibition at 5 µM ([5]; 5 µM, read-out: Colony growth inhibition) | inhibition at 10 µM [5] | Hemolytic activity, erythrocytes [9] |
| --- | --- | --- | --- | --- | --- | --- | --- | --- | --- | --- | --- | --- | --- | --- | --- | --- |
| 1.6 ± 0.2 µM | 5 ± 0.5 µM | 3 ± 0.2 µM | 8.69 µM |  |  |  |  |  | Cl.Nc1nc(-c2ccc(Br)cc2)c(SS[C@@H]2O[C@H](CO)[C@@H](O)[C@H](O)[C@H]2O)s1 [Compound 5c, 5-[(β-D-glucopyranosyl)disulfanyl]-2-amino-4-(4-bromophenyl)thiazole hydrochloride] | > 25 µM | > 25 µM | > 25 µM | > 25 µM |  |  | > 25 µM |
| 15.9 ± 1.1 µM | 38 ± 3 µM | 34.5 ± 3 µM |  | 5.62 µM |  |  |  |  | Cc1ccc(-c2nc(N)sc2SS[C@@H]2OC[C@@H](O)[C@H](O)[C@H]2O)cc1.Cl [Compound 5j, 5-[(β-D-xylopyranosyl)disulfanyl]-2-amino-4-(p-tolyl)thiazole hydrochloride] | > 25 µM | > 25 µM | > 25 µM | > 25 µM |  |  |  |
| 3.1 ± 2.3 µM | 6.6 ± 0.5 µM | 2.5 ± 0.2 µM |  | 6.00 µM |  |  |  |  | Nc1nc(-c2ccc(Cl)cc2)c(SS[C@@H]2O[C@H](CO)[C@@H](O)[C@H](O)[C@H]2O)s1 [Compound 5d, 5-[(β-D-glucopyranosyl)disulfanyl]-2-amino-4-(4-clorophenyl)thiazole hydrochloride] | > 25 µM | > 25 µM | > 25 µM | > 25 µM |  |  | > 25 µM |
| 1.6 ± 0.1 µM | 3.1 ± 0.3 µM | 1.2 ± 0.1 µM | 3.21 µM | 8.92 µM |  | 1.56 µM | 3.08 µM | 1.15 µM | Cl.Nc1nc(-c2ccc(Br)cc2)c(SS[C@@H]2OC[C@@H](O)[C@H](O)[C@H]2O)s1 [Compound 5h, 5-[(β-D-xylopyranosyl)disulfanyl]-2-amino-4-(4-bromophenyl)thiazole hydrochloride] | > 25 µM | > 25 µM | > 25 µM | 23.5 µM |  |  | > 25 µM |
